In general, Tmax refers to the time at which the peak concentration occurs. The Vd is the apparent volume that relates the amount in the body to the concentration in plasma or blood. A low value points to confinement near the circulation. A word on the clearance: it is a measure of how efficiently the substance is removed, as volume per time. The term AUC(0-inf) denotes the area under the concentration-time curve extrapolated to infinity. A high value points to more exposure. By Cmax is commonly meant the maximum level reached in the sampled fluid or tissue. In general, half-life refers to the time needed for the level to fall by half in the phase considered. Lower therefore signals fast loss.

The conditions of series [1]: versus albuterol, a short-acting hydrophilic beta-adrenergic agonist; cited from earlier work.
The nature of series [2]: Plasma pharmacokinetics following single intravenous and subcutaneous injections of salmeterol xinafoate. The note with it: for AUC(0-inf): AUCinf; for half-life: t1/2. How it is done:
Salmeterol xinafoate was formulated in 5% PEG-400 in 0.9% saline, USP, at concentrations of 0.1, 1, 10, and 100 μg/mL. 1 male and 1 female non-naive Gottingen minipigs (18.4 to 19.5 kg at the time of the IV dose) were utilized. The animals were housed individually.
Each minipig received a single IV injection followed by SC doses of the salmeterol formulation. The IV dose was administered by slow bolus (1 minute; 0.0167 hr) into the marginal ear vein, whereas the first SC dose was administered as a bolus injection along the back (neck-region) where there was a longitudinal fat depot. The second SC dose was distributed in 5 separate SC injection sites. The fourth, fifth, and sixth administrations were SC administrations divided over 5 injection sits of different graded concentrations (0.1, 1, and 10 μg/mL of salmeterol in 5% PEG). Each dose was separated by at least a 3-day washout period. Blood samples (approximately 4 mL) were collected via the branchiocephalic plexus at pre-dose and at 2.00, 5.00, 10.0, 20.0, 30.0 and 45.0 minutes, and at 1.00, 2.00, 4.00, 8.00 and 24.0 hr post-dose. Blood samples were placed in tubes containing K2-EDTA as the anticoagulant. Samples were processed to plasma by centrifugation and stored frozen at approximately −70° C. (+/−15° C.) until shipment for analysis.
Plasma samples were analyzed for salmeterol using a qualified liquid chromatography/mass spectrometry/mass mass spectrometry (LC/MS/MS) method. The lower limit of quantitation (LLOQ) was 2.50 pg/mL. Samples were analyzed within a maximum of 14.0 days of collection.
Non-compartmental pharmacokinetic parameters were calculated using WinNonlin 5.2 software, NCA model 202, IV infusion input for the IV data and NCA model 200, extravascular input for the SC data. Individual plasma concentrations for each animal were used in the calculation of pharmacokinetic parameters. Nominal collection times and doses were used in the calculations. The area under the plasma concentration-time curve (AUC) was calculated using linear trapezoidal approximation (linear/log interpolation). Concentration values below the assay limit of quantitation were set to zero for calculations. The maximum plasma concentration (Cmax) and the time of its occurrence (Tmax) were verified by inspection. The half-life (t1/2) values were calculated using the last 3 plasma concentrations with nonzero values, if data permitted.

Series [3] deals with abdominal subcutaneous adipose tissue.
From the text: To evaluate in a single masked, placebo-controlled design, the safety and exploratory efficacy measures of subcutaneous injections of three different doses of the combination of salmeterol xinafoate (SX) and fluticasone propionate (FP) administered by subcutaneous injection 1 or 2 times per week for 4 weeks to subjects with measurable abdominal subcutaneous adipose tissue.
A single-masked, placebo-controlled multiple-dose study of the safety and efficacy of three different doses of the combination of salmeterol xinafoate (SX) and fluticasone propionate (FP) administered by subcutaneous injection 1 or 2 times per week for 4 weeks in 60 subjects with measurable abdominal subcutaneous adipose tissue.
A 400 μg/mL sterile, preservative-free, clear, aqueous solution for injection of SX is contained in a 5 mL single-use glass vial. Each 5 mL single-use glass vial contains 2.6 mL of SX solution (400 μg/mL) which is stored frozen (−15° C. or below) and protected from light until dose preparation. A 25 mg/mL sterile, preservative free, clear, aqueous solution for injection of FP is contained in a 2 mL single-use glass vial. […]
Measurements of waist were taken at specified time points. […] The full waist circumference, and the right and the left hemi-circumferences were recorded.
Series [4] has the same test system. The experiment in a line: Phase 2 double-masked evaluation of safety and efficacy of SX and FP subcutaneous injection. Particulars: total weekly SX/FP dose of 11 μg/22 μg.
From the text: A Phase 2 study to examine the potential of selected doses of salmeterol xinafoate (SX) and fluticasone propionate (FP) co-administered to reduce abdominal subcutaneous adipose tissue, which is an interim surrogate to guide studies in subjects with symptomatic exophthalmos associated with thyroid-related eye disease (TED). The study also evaluated the safety and efficacy of subcutaneous injections of salmeterol xinafoate (SX) and fluticasone propionate (FP) for the reduction of abdominal (peri- and infra-umbilical) adiposity. The study compared the efficacy and safety of salmeterol xinafoate (SX) and fluticasone propionate (FP) at 1.0 μg FP and 0.05 μg SX once weekly to 1 mL placebo once weekly for 8 weeks for the reduction of measurable, abdominal subcutaneous adipose tissue. Additionally, the study evaluated in a double-masked, placebo-controlled design, the pharmacokinetics following multiple injected doses of salmeterol xinafoate (SX) and fluticasone propionate (FP) once weekly for 8 weeks. […]
All injections were performed in an outpatient setting. […] Once the study was completed and unmasked, only the serum samples collected from subjects receiving the higher combination dose were analyzed.
Series [5] is described as follows: Phase 1 open-label pharmacokinetics and safety of SX and FP co-administered subcutaneously in healthy volunteers. Particulars: 52 μg salmeterol xinafoate with 22 μg fluticasone propionate SC once per week for 4 weeks.
Method: Part III: An open-label, multiple-dose pharmacokinetic study of the selected SX+FP combined dose administered subcutaneously either 1 time per week for 4 weeks or 3 times per week for 4 weeks in twelve (12) healthy volunteers.
A 400 μg/mL sterile, preservative-free, clear, aqueous solution for injection of SX is contained in a 5 mL single-use glass vial. Each 5 mL single-use glass vial contains 2.6 mL of SX solution (400 μg/mL) which is stored frozen (−15° C. to −25° C.) and protected from light until dose preparation. A 25 mg/mL sterile, preservative free, clear, aqueous solution for injection of FP is contained in a 2 mL single-use glass vial. Each 2 mL single-use glass vial contains 1.0 mL of FP solution (25 μg/mL) which is stored frozen (−15° C. to −25° C.) and protected from light until dose preparation. Diluent: A sterile, preservative free, clear, aqueous solution of 20% PEG 400, 1% polysorbate 80, and sterile water for injection contained in a 10 mL single-use glass vial. Each 10 mL single-use glass vial contains 5.0 mL of diluent solution which should be stored at room temperature (15° C. to 25° C.). Prior to administration, the drug products are thawed, mixed, and if necessary diluted with sterile diluent to provide the target concentrations for dose administration. […]
Where [6] appears, read: female, Gottingen, minipig, in vivo, iv, 4 ug/kg.
Setting [7] is: female, Gottingen, minipig, in vivo, sc, 0.4 ug/kg.
The mark [8] stands for this setting: female, Gottingen, minipig, in vivo, sc, 4 ug/kg.
The mark [9] stands for this setting: male, Gottingen, minipig, in vivo, iv, 4 ug/kg.
[10] abbreviates: male, Gottingen, minipig, in vivo, sc, 0.4 ug/kg.
Where [11] appears, read: male, Gottingen, minipig, in vivo, sc, 4 ug/kg.

Consider `OCc1cc(C(O)CNCCCCCCOCCCCc2ccccc2)ccc1O` (racemic) [Salmeterol, ±2-(hydroxymethyl)-4-[1-hydroxy-2-[6-(4-phenylbutoxy)hexylamino]ethyl]-phenol], for which the “lipophilicity relative to albuterol” value in series [1] is given as “at least 10,000 times”. The Tmax in series [2] (SC5 (5 sites) 4 μg/kg, male 1-0771) came to 0.0833 h; in series [2] (female, Gottingen, minipig, in vivo, iv, 4 ug/kg, Tmax), 0.0333 h; in series [2] (female, Gottingen, minipig, in vivo, sc, 0.004 ug/kg, Tmax) it was 1 h; in series [2] (female, Gottingen, minipig, in vivo, sc, 0.04 ug/kg, Tmax), 0.0333 h; in series [2] (female, Gottingen, minipig, in vivo, sc, 0.4 ug/kg, Tmax) it was 0.0333 h; in series [2] (male, Gottingen, minipig, in vivo, iv, 4 ug/kg, Tmax), 0.0333 h. Moreover, the Tmax is 0.0833 h in series [2] (male, Gottingen, minipig, in vivo, sc, 0.04 ug/kg); 0.0833 h in series [2] (setting [10]); 0.0833 h in series [2] (setting [11]). The “salmeterol partition ratio (plasma Cmax ratio of subcutaneous to intravenous administration)” value in series [2] (both, Gottingen, minipig, in vivo) came to 0.1. Moreover, the concentration at 0.0833 hr in series [2] (female, Gottingen, minipig, in vivo) came to 0.485 ng/mL; in series [2] (female, Gottingen, minipig, in vivo, 0.04 mg/kg) it was 0.00317 ng/mL; in series [2] (female, Gottingen, minipig, in vivo, iv), 1.3 ng/mL; in series [2] (female, Gottingen, minipig, in vivo, sc), 0.227 ng/mL; in series [2] (male, Gottingen, minipig, in vivo), 0.681 ng/mL; in series [2] (male, Gottingen, minipig, in vivo, 0.04 mg/kg), 0.00277 ng/mL. For the same compound, the concentration at 0.0833 hr was 1.38 ng/mL in series [2] (male, Gottingen, minipig, in vivo, iv) and 0.575 ng/mL in series [2] (male, Gottingen, minipig, in vivo, sc). Also, the bioavailability in series [2] (female, Gottingen, minipig, in vivo, 0.4 ug/kg, F (bioavailability)) was 112%; in series [2] (female, Gottingen, minipig, in vivo, sc, 4 ug/kg, F (bioavailability)) it was 126%; in series [2] (female, Gottingen, minipig, in vivo, sc, 4 ug/kg, bioavailability), 126 to 137%; in series [2] (male, Gottingen, minipig, in vivo, 0.4 ug/kg, F (bioavailability)), 78.9%; in series [2] (male, Gottingen, minipig, in vivo, sc, 4 ug/kg, F (bioavailability)), 73.7%; in series [2] (male, Gottingen, minipig, in vivo, sc, 4 ug/kg, bioavailability) it was 73.7 to 86.3%. For the same compound, the Vd in series [2] (setting [6]) turned out to be 22.1 L/kg; in series [2] (setting [9]), 17.1 L/kg. The figures for the clearance in series [2] (setting [6]) and in series [2] (setting [9]) were 45.5 mL/min/kg and 38 mL/min/kg, respectively. Besides, the AUC(0-inf) in series [2] (setting [6]) came out at 1.47 ng·h/mL; in series [2] (setting [7]), 0.164 ng·h/mL; in series [2] (setting [8]), 1.85 ng·h/mL; in series [2] (setting [9]), 1.75 ng·h/mL; in series [2] (setting [10]), 0.138 ng·h/mL; in series [2] (setting [11]), 1.29 ng·h/mL. Further, the highest concentration (Cmax) in series [2] (female, Gottingen, minipig, in vivo, iv, 4 ug/kg, Cmax) is 4.95 ng/mL; in series [2] (female, Gottingen, minipig, in vivo, sc, 0.004 ug/kg, Cmax), 0.00308 ng/mL; in series [2] (female, Gottingen, minipig, in vivo, sc, 0.04 ug/kg, Cmax) it was 0.00831 ng/mL; in series [2] (female, Gottingen, minipig, in vivo, sc, 0.4 ug/kg, Cmax) it was 0.113 ng/mL; in series [2] (setting [8]) it was 0.626 ng/mL; in series [2] (female, Gottingen, minipig, in vivo, sc, 4 ug/kg, Cmax) it was 0.403 ng/mL. Besides, the Cmax in series [2] (male, Gottingen, minipig, in vivo, iv, 4 ug/kg, Cmax) was determined as 4.29 ng/mL; in series [2] (male, Gottingen, minipig, in vivo, sc, 0.04 ug/kg, Cmax), 0.00277 ng/mL; in series [2] (male, Gottingen, minipig, in vivo, sc, 0.4 ug/kg, Cmax), 0.0645 ng/mL; in series [2] (setting [11]) it was 0.681 ng/mL; in series [2] (male, Gottingen, minipig, in vivo, sc, 4 ug/kg, Cmax), 0.575 ng/mL; in series [2] (minipig, in vivo, 0.004 ug/kg) it was 0 ng/mL. Besides, the half-life was 9.52 h in series [2] (setting [6]); 2.88 h in series [2] (setting [7]); 6.02 h in series [2] (setting [8]); 7.89 h in series [2] (setting [9]); 2.94 h in series [2] (setting [10]); 5.92 h in series [2] (setting [11]). Further, the “F (bioavailability)” value was 1.12 in series [2] (setting [7]), 1.37 in series [2] (setting [8]), 0.789 in series [2] (setting [10]) and 0.863 in series [2] (setting [11]). Also, the AUCinf in series [2] (setting [8]) was 2.01 ng·h/mL; in series [2] (setting [11]) it was 1.51 ng·h/mL. Besides, the t1/2 worked out at 8.58 h in series [2] (setting [8]) and 6.84 h in series [2] (setting [11]). The “partition ratio relative to the partition ratio of formoterol” value in series [2] (minipig, in vivo) was “about five times lower”.

On to `OCc1cc(C(O)CNCCCCCCOCCCCc2ccccc2)ccc1O` (stereo not drawn) [salmeterol xinafoate], for which the “efficacy of once per week versus twice per week dosing” value in series [3] (human clinical trial, FIGS. 3B and 7B) is given as “more efficacious than twice per week dosing”. Moreover, in series [3] (lowest dose 0.5 μg salmeterol xinafoate once per week for 4 weeks, with fluticasone, versus higher weekly doses), the “dose-therapeutic efficacy response (change in waist circumference)” value is “greatest therapeutic efficacy”.

For the compound fluticasone propionate, in series [4], the “plasma levels relative to 505(b)(2) reference levels produced by an FDA-approved drug” value is “⅓-⅕”. In series [5], the “Cmax and AUC at day 22 compared to day 1” value is “increase”.

The record behind these values is patent US9132084B2, “Methods for administration and formulations for the treatment of regional adipose tissue” (NEOTHETICS, INC., priority 2009, dated 2015).
